Assays:
[1] = test system: HT-29 (human colon adenocarcinoma); test: Inhibition of cell proliferation (MTT), HT-29; type: cell-based; details: Table 2, 48 h of treatment (footnote), average ±SD of three experiments
purified tubulin = test: Critical concentration (CrC) for the assembly of purified tubulin in GAB; type: biochemical; details: compound 27.5 μM, tubulin 25 μM, glycerol (GAB) and GTP assembly buffer; control 7.9 ± 1.2
Method: The effect on the self-assembly of tubulin was determined by measuring the critical concentration (CrC).

A-549 cells = test: Cell cycle distribution by flow cytometry; type: cell-based, human; details: A-549, 24 h
How it was run: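 A-549 cells were harvested, fixed in cold 70% ethanol (30 min, −20 °C), then stained with 50 µg/mL propidium iodide plus 100 µg/mL RNase A in PBS for 20 min at room temperature in the dark. Flow cytometry used 488 nm excitation and 620 nm emission, giving the percentage of cells in G2/M.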

c-Myc gene = c-Myc gene expression by RT-qPCR in HT-29 cells; type: cell-based, human; details: HT-29, 48 h; for mrna remaining at 0.007 µM: 7 nM; for downregulation of c-Myc gene expression: discussion, concentration per compound; for mrna remaining at 0.004 µM: 4 nM
Method: The effect on the expression of VEGF, hTERT and c-Myc genes has been studied for CA-4 and its derivatives that show selectivity indexes higher than 0.9 on the HT-29 cell line. The studied derivatives, together with the concentrations to which they have been tested, are CA-4 (15 μM); 4.1 (Gly, 5 μM); 4.5 (L-Pro, 25 μM); 4.9 (L-Met, 25 μM); 6.2 (D-Leu, 25 μM); 6.3 (D-Phe, 25 μM); 6.4 (D-Pro, 25 μM) and 6.5 (D-Ser, 10 μM). The expression of the genes was determined by RT-qPCR methodology, as described in the Materials and Methods section.
As regards AmCA-4 derivatives, the effect on the expression of the VEGF, hTERT and c-Myc genes has been studied on those that show IC50 in the low nanomolar range on the HT-29 cell line and/or on compounds whose selectivity indexes with respect to this cell line are higher than 1. The studied compounds, together with the concentrations to which they have been tested, are: CA-4 (15 μM), AmCA-4 (15 nM), 7.1 (7 nM), 7.2 (1.5 nM), 7.3 (4 nM), 7.4 (15 nM), 7.5 (2 nM), 7.7 (7 nM), 7.8 (15 nM), 7.9 (30 nM), 8.1 (7 nM), 8.2 (3 nM), 8.3 (10 nM), 8.4 (1.5 nM), 8.5 (4 nM), 8.7 (7 nM), 8.8 (3 nM) and 8.9 (4 nM).
HT-29 cells at 70–80% confluence were collected, and 1.5 × 10^5 cells were placed in a six-well plate in 1.5 mL of the medium. After 24 h, cells were incubated with the corresponding compounds for 48 h. Cells were collected, and the total cellular RNA from the HT-29 cells was isolated using an Ambion RNA Extraction Kit, according to the manufacturer’s instructions. The cDNA was synthesized by MMLV-RT with […] of extracted RNA and oligo(dT)15, according to the manufacturer’s instructions. Genes were amplified by a thermal cycler and StepOnePlus™ TaqMan® probes. TaqMan® Gene Expression Master Mix Fast, containing the appropriate buffer for the amplification conditions, dNTPs, thermostable DNA polymerase enzyme and a passive reference probe, was used. To amplify each of the genes, the predesigned primers sold by Life Technologies TaqMan® Gene Expression Assays Hs99999903-m1 (β-actin), Hs00900055-m1 (VEGF), Hs00972646-m1 (hTERT) and Hs00153408-m1 (c-Myc) were used.

[2] = concentration per compound as in Tables 6 and 7

SMILES	IC50 ([1]; Homo sapiens, HT-29, 48 h) [nM]	CrC (critical concentration) (purified tubulin) [µM]	mrna remaining at 0.007 µM (c-Myc gene; Homo sapiens, control 100) [%]	G0/G1 (A-549 cells; 2 µM) [%]	G2/M (A-549 cells; 2 µM) [%]	S (A-549 cells; 2 µM) [%]	IC50 [1] [nM]	further results
COc1ccc(/C=C\c2cc(OC)c(OC)c(OC)c2)cc1NC(=O)CNC(=O)OCC1c2ccccc2-c2ccccc21 [Compound 7.1]	7 ± 4	11 ± 4	58					G0/G1 (A-549 cells; 0.5 µM): 28 ± 1%; G2/M (A-549 cells; 0.5 µM): 54 ± 1%; S (A-549 cells; 0.5 µM): 18 ± 2%
COc1ccc(/C=C\c2cc(OC)c(OC)c(OC)c2)cc1NC(=O)[C@H](Cc1ccccc1)NC(=O)OCC1c2ccccc2-c2ccccc21 [Compound 7.5]	8 ± 3	8.1 ± 1.6		34 ± 2	46 ± 3	20 ± 1		downregulation of c-Myc gene expression (c-Myc gene): more than 60%; mrna remaining at 0.002 µM (c-Myc gene; Homo sapiens, 2 nM, control 100): 40%
COc1ccc(/C=C\c2cc(OC)c(OC)c(OC)c2)cc1NC(=O)[C@H](CCSC)NC(=O)OCC1c2ccccc2-c2ccccc21 [Compound 7.9]	33 ± 20	7.1 ± 0.4		72 ± 2	10 ± 3	18 ± 1		Effect on the cell cycle (A-549 cells; [2]): do not accumulate a high percentage of cells in phase G2/M; mrna remaining at 0.03 µM (c-Myc gene; Homo sapiens, 30 nM, control 100): 61%
COc1ccc(/C=C\c2cc(OC)c(OC)c(OC)c2)cc1NC(=O)CN [Compound 8.1]	10 ± 2	10.2 ± 1.8	54	32 ± 5	46 ± 4	22 ± 2		
COc1ccc(/C=C\c2cc(OC)c(OC)c(OC)c2)cc1NC(=O)[C@H](C)N [Compound 8.2]	< 5	13.9 ± 1.5					3 ± 0.3	G0/G1 (A-549 cells; 3 µM): 28 ± 1%; G2/M (A-549 cells; 3 µM): 58 ± 5%; S (A-549 cells; 3 µM): 14 ± 4%; mrna remaining at 0.003 µM (c-Myc gene; Homo sapiens, 3 nM, control 100): 97%
COc1ccc(/C=C\c2cc(OC)c(OC)c(OC)c2)cc1NC(=O)[C@@H](N)C(C)C [Compound 8.3]	13.3 ± 0.5	9.3 ± 0.5		65 ± 2	15 ± 2	20 ± 1		Effect on the cell cycle (A-549 cells; [2]): do not accumulate a high percentage of cells in phase G2/M; mrna remaining at 0.01 µM (c-Myc gene; Homo sapiens, 10 nM, control 100): 62%
COc1ccc(/C=C\c2cc(OC)c(OC)c(OC)c2)cc1NC(=O)[C@@H](N)Cc1ccccc1 [Compound 8.5]	< 5	9.1 ± 0.9					4.4 ± 2.5	G0/G1 (A-549 cells; 0.5 µM): 46 ± 2%; G2/M (A-549 cells; 0.5 µM): 26 ± 10%; S (A-549 cells; 0.5 µM): 28 ± 11%; mrna remaining at 0.004 µM (c-Myc gene; Homo sapiens, control 100): 74%
COc1ccc(/C=C\c2cc(OC)c(OC)c(OC)c2)cc1NC(=O)[C@@H](N)C(C)O (some centres unmarked) [Compound 8.7]	8 ± 2	12.3 ± 0.6	37	31 ± 1	51 ± 2	18 ± 1		cells accumulated in the G2/M phase (A-549 cells; concentration per compound as in Tables 6 and 7, control 14%): more than 50%; downregulation of c-Myc gene expression (c-Myc gene): more than 60%
COc1ccc(/C=C\c2cc(OC)c(OC)c(OC)c2)cc1NC(=O)[C@@H](N)CCSC [Compound 8.9]	< 5	8.5 ± 1.2					4.9 ± 0.1	G0/G1 (A-549 cells; 0.2 µM): 30 ± 1%; G2/M (A-549 cells; 0.2 µM): 51 ± 2%; S (A-549 cells; 0.2 µM): 19 ± 1%; mrna remaining at 0.004 µM (c-Myc gene; Homo sapiens, control 100): 70%
